Read-outs that look alike come from different tables or passages of the source.
Columns and labels:
[1] = system: NCI-H929 human multiple myeloma tumor cell line; experiment: NCI-H929 cell viability assay (CellTiter-Glo); assay type: cell-based; settings: NCI-H929, read-out: H929 Viability IC50 (μM), 10% FBS, 24 hours of compound treatment
Protocol: (§1) In one exemplary set of conditions, NCI-H929 or AMO-1 (ATCC. Manassas, Va.) were plated 4.000 cells per well in 384-well tissue culture plates (Corning. Corning, N.Y.) in a total volume of 25 μL RPMI tissue culture medium supplemented with 10% fetal bovine serum (Sigma-Aldrich, St. Louis, Mo.) and treated with a 3-fold serial dilution of the compounds of interest with a Labcyte Echo from a final concentration of 10 μM to 0.0005 μM. Each concentration was tested in duplicate at least 3 independent times. A luminescent signal proportional to the number of viable cells following 24 hours of compound treatment was determined using the CellTiter-Glo® Luminescent Cell Viability Assay according to the manufacturer's recommendations (Promega Corp., Madison, Wis.). The plates were read in a Perkin Elmer Envision using a Luminescence protocol. To generate dose response curves the data is normalized to percent viability by setting the averages of the staurosporine (10 uM) and DMSO only control wells to 0% and (00)% viability respectively. The IC50 values for the compounds are generated by fitting the normalized data with Accelrys Assay Explorer 3.3 to a sigmoidal curve model using linear regression.

[2] = system: AMO-1 human multiple myeloma tumor cell line; experiment: AMO-1 cell viability assay (CellTiter-Glo); assay type: cell-based; settings: AMO1, read-out: AMO-1 Viability IC50 (μM), 10% FBS, 24 hours of compound treatment
Protocol: as §1

GST-MCL-1 = GST-MCL-1 (Homo sapiens (Human), UniProt Q07820); experiment: TR-FRET MCL-1 binding assay (competition with probe F-Bak)
Protocol: For the assay, an acoustic dispenser was used to prepare dilution series from 10 mM test compounds in 100% DMSO and directly transfer 160 nL into low volume 384-well assay plates. 8 μL of a protein/probe/antibody mix was then added to each well resulting in final concentrations listed below: Test compound: 11 three-fold dilutions beginning at 25 μM
The samples were then mixed on a shaker for 1 minute and incubated for an additional 2 hours at room temperature. For each assay plate, a probe/antibody and protein/antibody/probe mixture were included as a negative and a positive control, respectively. Fluorescence was measured on the Envision (Perkin Elmer) using a 340/35 nm excitation filter and 520/525 (F-Bak) and 495/510 nm (Tb-labeled anti-his antibody) emission filters. […] The TR-FRET assay can be performed in the presence of varying concentrations of human serum (HS) or fetal bovine serum (FBS). Compounds were tested both without HS and in the presence of 10% HS.

[3] = read-out: MCL-1 Binding Ki (nM, 10% HS), in the presence of 10% HS
[4] = without HS, read-out: MCL-1 Binding Ki

GST-MCL-1, sequence (Q07820 whole entry): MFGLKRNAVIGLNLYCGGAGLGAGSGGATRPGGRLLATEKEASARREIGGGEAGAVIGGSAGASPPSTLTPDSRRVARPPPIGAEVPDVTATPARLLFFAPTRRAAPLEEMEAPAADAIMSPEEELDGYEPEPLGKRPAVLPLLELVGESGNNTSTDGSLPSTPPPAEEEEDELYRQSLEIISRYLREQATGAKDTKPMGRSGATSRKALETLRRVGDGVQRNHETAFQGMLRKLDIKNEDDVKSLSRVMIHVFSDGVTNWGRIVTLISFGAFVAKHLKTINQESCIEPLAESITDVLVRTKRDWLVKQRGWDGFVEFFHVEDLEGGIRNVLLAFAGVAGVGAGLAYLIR

| SMILES | IC50 [1] [µM] | IC50 [2] [nM] | Ki (GST-MCL-1; [3]) [nM] | Ki (GST-MCL-1; [4]) [nM] |
| --- | --- | --- | --- | --- |
| Cc1c(Cl)c2c(Cl)c(C)c1-c1c(-c3ccc(F)cc3)sc3ncnc(c13)O[C@@H](C(=O)O)Cc1cc(ccc1OCc1ccnc(N3CCN(S(=O)(=O)CC4COCCO4)CC3)n1)OC[C@@H](CN1CCN(C)CC1)O2 (stereo partly drawn) [Example 26, (7R,16R)-19,23-dichloro-10-[(2-{4-[(1,4-dioxan-2-yl)methanesulfonyl]piperazin-1-yl}pyrimidin-4-yl)methoxy]-1-(4-fluorophenyl)-20,22-dimethyl-16-[(4-methylpiperazin-1-yl)methyl]-7,8,15,16-tetrahydro-18,21-etheno-13,9-(metheno)-6,14,17-trioxa-2-thia-3,5-diazacyclononadeca[1,2,3-cd]indene-7-carboxylic acid] | 0.000241 | 0.2 | 1 | 0.104 |
| COc1ccccc1-c1nccc(COc2ccc3cc2C[C@H](C(=O)O)Oc2ncnc4sc(C5=COCCO5)c(c24)-c2c(C)c(Cl)c(c(Cl)c2C)O[C@H](CN2CCN(C)CC2)CO3)n1 [Example 27, (7R,16R)-19,23-dichloro-1-(5,6-dihydro-1,4-dioxin-2-yl)-10-{[2-(2-methoxyphenyl)pyrimidin-4-yl]methoxy}-20,22-dimethyl-16-[(4-methylpiperazin-1-yl)methyl]-7,8,15,16-tetrahydro-18,21-etheno-13,9-(metheno)-6,14,17-trioxa-2-thia-3,5-diazacyclononadeca[1,2,3-cd]indene-7-carboxylic acid] | 0.0015 | 0.435 | 0.02 | 0.008 |
| Cc1c(Cl)c2c(Cl)c(C)c1-c1c(-c3ccc(F)cc3)sc3ncnc(c13)O[C@@H](C(=O)O)Cc1cc(ccc1OCc1ccnc([C@H]3CC[C@](F)(COC[C@@H]4COCCO4)CC3)n1)OC[C@@H](CN1CCN(C)CC1)O2 [Example 28, (7R,16R)-19,23-dichloro-10-({2-[(1R,4s)-4-({[(2S)-1,4-dioxan-2-yl]methoxy}methyl)-4-fluorocyclohexyl]pyrimidin-4-yl}methoxy)-1-(4-fluorophenyl)-20,22-dimethyl-16-[(4-methylpiperazin-1-yl)methyl]-7,8,15,16-tetrahydro-18,21-etheno-13,9-(metheno)-6,14,17-trioxa-2-thia-3,5-diazacyclononadeca[1,2,3-cd]indene-7-carboxylic acid] | 0.000337 | 0.211 | 0.18 | 0.017 |
| Cc1c(Cl)c2c(Cl)c(C)c1-c1c(C3CCC3)sc3ncnc(c13)O[C@@H](C(=O)O)Cc1cc(ccc1OCc1ccnc([C@H]3CC[C@H](OCC4COCCO4)CC3)n1)OC[C@@H](CN1CCN(C)CC1)O2 (stereo partly drawn) [Example 29, (7R,16R)-19,23-dichloro-1-cyclobutyl-10-[(2-{(1r,4r)-4-[(1,4-dioxan-2-yl)methoxy]cyclohexyl}pyrimidin-4-yl)methoxy]-20,22-dimethyl-16-[(4-methylpiperazin-1-yl)methyl]-7,8,15,16-tetrahydro-18,21-etheno-13,9-(metheno)-6,14,17-trioxa-2-thia-3,5-diazacyclononadeca[1,2,3-cd]indene-7-carboxylic acid] | 0.000346 | 0.0812 | 0.55 | 0.011 |
| Cc1c(Cl)c2c(Cl)c(C)c1-c1c(-c3ccc(F)cc3)sc3ncnc(c13)O[C@@H](C(=O)O)Cc1cc(ccc1OCc1ccnc(C3COCCOC3)n1)OC[C@@H](CN1CCN(C)CC1)O2 [Example 30, (7R,16R)-19,23-dichloro-10-{[2-(1,4-dioxepan-6-yl)pyrimidin-4-yl]methoxy}-1-(4-fluorophenyl)-20,22-dimethyl-16-[(4-methylpiperazin-1-yl)methyl]-7,8,15,16-tetrahydro-18,21-etheno-13,9-(metheno)-6,14,17-trioxa-2-thia-3,5-diazacyclononadeca[1,2,3-cd]indene-7-carboxylic acid] | 0.000974 | 0.285 | 0.16 | 0.015 |
| Cc1c(Cl)c2c(Cl)c(C)c1-c1c(-c3ccc(F)cc3)sc3ncnc(c13)O[C@@H](C(=O)O)Cc1cc(ccc1OCc1cc(-c3ccc(OC[C@H]4COCCO4)cc3)ncn1)OC[C@@H](CN1CCN(C)CC1)O2 [Example 31, (7R,16R)-19,23-dichloro-10-{[6-(4-{[(2R)-1,4-dioxan-2-yl]methoxy}phenyl)pyrimidin-4-yl]methoxy}-1-(4-fluorophenyl)-20,22-dimethyl-16-[(4-methylpiperazin-1-yl)methyl]-7,8,15,16-tetrahydro-18,21-etheno-13,9-(metheno)-6,14,17-trioxa-2-thia-3,5-diazacyclononadeca[1,2,3-cd]indene-7-carboxylic acid] | 0.011 | 4.19 | 5.27 | 0.373 |
| Cc1c(Cl)c2c(Cl)c(C)c1-c1c(C3=CCCC3)sc3ncnc(c13)O[C@@H](C(=O)O)Cc1cc(ccc1OCc1ccnc([C@H]3CC[C@H](OCC4COCCO4)CC3)n1)OC[C@@H](CN1CCN(C)CC1)O2 (stereo partly drawn) [Example 32, (7R,16R)-19,23-dichloro-1-(cyclopent-1-en-1-yl)-10-[(2-{(1r,4r)-4-[(1,4-dioxan-2-yl)methoxy]cyclohexyl}pyrimidin-4-yl)methoxy]-20,22-dimethyl-16-[(4-methylpiperazin-1-yl)methyl]-7,8,15,16-tetrahydro-18,21-etheno-13,9-(metheno)-6,14,17-trioxa-2-thia-3,5-diazacyclononadeca[1,2,3-cd]indene-7-carboxylic acid] | 0.000296 | 0.17 | 0.27 | 0.022 |
| Cc1c(Cl)c2c(Cl)c(C)c1-c1c(C3=CCCC3)sc3ncnc(c13)O[C@@H](C(=O)O)Cc1cc(ccc1OCc1ccnc([C@H]3CC[C@](F)(COC[C@@H]4COCCO4)CC3)n1)OC[C@@H](CN1CCN(C)CC1)O2 [Example 33, (7R,16R)-19,23-dichloro-1-(cyclopent-1-en-1-yl)-10-({2-[(1R,4s)-4-({[(2S)-1,4-dioxan-2-yl]methoxy}methyl)-4-fluorocyclohexyl]pyrimidin-4-yl}methoxy)-20,22-dimethyl-16-[(4-methylpiperazin-1-yl)methyl]-7,8,15,16-tetrahydro-18,21-etheno-13,9-(metheno)-6,14,17-trioxa-2-thia-3,5-diazacyclononadeca[1,2,3-cd]indene-7-carboxylic acid] | 0.000586 | 0.222 | 0.3 | 0.023 |
| Cc1c(Cl)c2c(Cl)c(C)c1-c1c(C3=CCCC3)sc3ncnc(c13)O[C@@H](C(=O)O)Cc1cc(ccc1OCc1ccnc(C3=CC[C@](F)(COC[C@H]4COCCO4)CC3)n1)OC[C@@H](CN1CCN(C)CC1)O2 [Example 34, (7R,16R)-19,23-dichloro-1-(cyclopent-1-en-1-yl)-10-({2-[(4S)-4-({[(2R)-1,4-dioxan-2-yl]methoxy}methyl)-4-fluorocyclohex-1-en-1-yl]pyrimidin-4-yl}methoxy)-20,22-dimethyl-16-[(4-methylpiperazin-1-yl)methyl]-7,8,15,16-tetrahydro-18,21-etheno-13,9-(metheno)-6,14,17-trioxa-2-thia-3,5-diazacyclononadeca[1,2,3-cd]indene-7-carboxylic acid] | 0.001 | 0.235 | 0.54 | 0.03 |
| Cc1c(Cl)c2c(Cl)c(C)c1-c1c(C3=CCCC3)sc3ncnc(c13)O[C@@H](C(=O)O)Cc1cc(ccc1OCc1ccnc(C3=CC[C@](F)(COC[C@@H]4COCCO4)CC3)n1)OC[C@@H](CN1CCN(C)CC1)O2 [Example 35, (7R,16R)-19,23-dichloro-1-(cyclopent-1-en-1-yl)-10-({2-[(4S)-4-({[(2S)-1,4-dioxan-2-yl]methoxy}methyl)-4-fluorocyclohex-1-en-1-yl]pyrimidin-4-yl}methoxy)-20,22-dimethyl-16-[(4-methylpiperazin-1-yl)methyl]-7,8,15,16-tetrahydro-18,21-etheno-13,9-(metheno)-6,14,17-trioxa-2-thia-3,5-diazacyclononadeca[1,2,3-cd]indene-7-carboxylic acid] | 0.00111 | 0.261 | 0.52 | 0.027 |
| Cc1c(Cl)c2c(Cl)c(C)c1-c1c(-c3ccc(F)cc3)sc3ncnc(c13)O[C@@H](C(=O)O)Cc1cc(ccc1OCc1ccnc(-c3ccc(NC[C@H]4COCCO4)nc3)n1)OC[C@@H](CN1CCN(C)CC1)O2 [Example 36, (7R,16R)-19,23-dichloro-10-({2-[6-({[(2S)-1,4-dioxan-2-yl]methyl}amino)pyridin-3-yl]pyrimidin-4-yl}methoxy)-1-(4-fluorophenyl)-20,22-dimethyl-16-[(4-methylpiperazin-1-yl)methyl]-7,8,15,16-tetrahydro-18,21-etheno-13,9-(metheno)-6,14,17-trioxa-2-thia-3,5-diazacyclononadeca[1,2,3-cd]indene-7-carboxylic acid] | 0.000183 | 0.0488 | 0.05 | 0.001 |
